Experiments:
[1] = tested on: Cabbage Looper (Trichoplusia ni, TRIPNI); experiment: Bioassays on Cabbage Looper (CL), 128-well diet tray assay; format: in vivo; conditions: Cabbage Looper, Table ABC Biological Results, read-out: CL (rating)
Protocol: (§1) Certain molecules disclosed in this document were tested against BAW and CL using procedures described in the following examples. In the reporting of the results, the “BAW & CL Rating Table” was used (See Table Section).
Bioassays on CL were conducted using a 128-well diet tray assay. One to five second instar CL larvae were placed in each well (3 mL) of the diet tray that had been previously filled with 1 mL of artificial diet to which 50 μg/cm^2 of the test molecule (dissolved in 50 μL of 90:10 acetone-water mixture) had been applied (to each of eight wells) and then allowed to dry. Trays were covered with a clear self-adhesive cover, vented to allow gas exchange, and held at 25° C., 14:10 light-dark for five to seven days. Percent mortality was recorded for the larvae in each well; activity in the eight wells was then averaged. The results are indicated in the table entitled “Table ABC: Biological Results” (See Table Section).

[2] = tested on: Beet Armyworm (Spodoptera exigua, LAPHEG); experiment: Bioassays on Beet Armyworm (BAW), 128-well diet tray assay; format: in vivo; conditions: Beet Armyworm, Table ABC Biological Results, read-out: BAW (rating)
Protocol: as §1
Bioassays on BAW were conducted using a 128-well diet tray assay. One to five second instar BAW larvae were placed in each well (3 mL) of the diet tray that had been previously filled with 1 mL of artificial diet to which 50 μg/cm^2 of the test molecule (dissolved in 50 μL of 90:10 acetone-water mixture) had been applied (to each of eight wells) and then allowed to dry. Trays were covered with a clear self-adhesive cover, vented to allow gas exchange, and held at 25° C., 14:10 light-dark for five to seven days. Percent mortality was recorded for the larvae in each well; activity in the eight wells was then averaged. The results are indicated in the table entitled “Table ABC: Biological Results” (See Table Section).

| Compound | pest or weed control at 50 µg/cm2 [1] [%] | pest or weed control at 50 µg/cm2 [2] [%] |
| --- | --- | --- |
| O=C(CCSC(F)(F)F)Nc1c(F)ccc(NC(=O)c2cc(NC(=O)[C@H]3[C@H](c4ccc(F)c(C(F)(F)F)c4)C3(Cl)Cl)ccc2Cl)c1F [F22, 2-Chloro-5-((1R,3R)-2,2-dichloro-3-(4-fluoro-3-(trifluoromethyl)phenyl)cyclopropane-1-carboxamido)-N-(2,4-difluoro-3-(3-((trifluoromethyl)thio)propanamido)phenyl)benzamide] | 50 to 100 | 50 to 100 |
| O=C(C[S+]([O-])C(F)(F)F)Nc1c(F)ccc(NC(=O)c2cc(NC(=O)[C@H]3[C@H](c4cc(Cl)c(Cl)c(Cl)c4)C3(Cl)Cl)ccc2Cl)c1F (stereo partly drawn) [F26, 2-Chloro-5-((1R,3R)-2,2-dichloro-3-(3,4,5-trichlorophenyl)cyclopropane-1-carboxamido)-N-(2,4-difluoro-3-(2-((trifluoromethyl)sulfinyl)acetamido)phenyl)benzamide] | 50 to 100 | 50 to 100 |
| CC(C(=O)Nc1c(F)ccc(NC(=O)c2cc(NC(=O)[C@H]3[C@H](c4ccc(F)c(Cl)c4)C3(Cl)Cl)ccc2Cl)c1F)[S+]([O-])C(F)(F)F (stereo partly drawn) [F27, 2-Chloro-5-((1R,3R)-2,2-dichloro-3-(3-chloro-4-fluorophenyl)cyclopropane-1-carboxamido)-N-(2,4-difluoro-3-(2-((trifluoromethyl)sulfinyl)propanamido)phenyl)benzamide] | 50 to 100 | 50 to 100 |
| O=C(C[S+]([O-])C(F)(F)F)Nc1c(F)ccc(NC(=O)c2cc(NC(=O)[C@H]3[C@H](c4ccc(F)c(Cl)c4)C3(Cl)Cl)ccc2Cl)c1F (stereo partly drawn) [F28, 2-Chloro-5-((1R,3R)-2,2-dichloro-3-(3-chloro-4-fluorophenyl)cyclopropane-1-carboxamido)-N-(2,4-difluoro-3-(2-((trifluoromethyl)sulfinyl)acetamido)phenyl)benzamide] | 50 to 100 | 50 to 100 |
| O=C(C[S+]([O-])CC(F)(F)F)Nc1c(F)ccc(NC(=O)c2cc(NC(=O)[C@H]3[C@H](c4cc(Cl)c(Cl)c(Cl)c4)C3(Cl)Cl)ccc2Cl)c1F (stereo partly drawn) [F29, 2-Chloro-5-((1R,3R)-2,2-dichloro-3-(3,4,5-trichlorophenyl)cyclopropane-1-carboxamido)-N-(2,4-difluoro-3-(2-((2,2,2-trifluoroethyl)sulfinyl)acetamido)phenyl)benzamide] | 50 to 100 | 50 to 100 |
| O=C(C[S+]([O-])CC(F)(F)F)Nc1c(F)ccc(NC(=O)c2cc(NC(=O)[C@H]3[C@H](c4ccc(Cl)c(Cl)c4)C3(Cl)Cl)ccc2Cl)c1F (stereo partly drawn) [F30, 2-chloro-5-((R,3R)-2,2-dichloro-3-(3,4-dichlorophenyl)cyclopropane-1-carboxamido)-N-(2,4-difluoro-3-(2-((2,2,2-trifluoroethyl)sulfinyl)acetamido)phenyl)benzamide] | 50 to 100 | 50 to 100 |
| O=C(C[S+]([O-])CC(F)(F)F)Nc1c(F)ccc(NC(=O)c2cc(NC(=O)[C@H]3[C@H](c4ccc(F)c(Cl)c4)C3(Cl)Cl)ccc2Cl)c1F (stereo partly drawn) [F31, 2-Chloro-5-((1R,3R)-2,2-dichloro-3-(3-chloro-4-fluorophenyl)cyclopropane-1-carboxamido)-N-(2,4-difluoro-3-(2-((2,2,2-trifluoroethyl)sulfinyl)acetamido)phenyl)benzamide] | 50 to 100 | 50 to 100 |
| O=C(C[S+]([O-])C(F)(F)F)Nc1c(F)ccc(NC(=O)c2cc(NC(=O)[C@H]3[C@H](c4ccc(F)c(C(F)(F)F)c4)C3(Cl)Cl)ccc2Cl)c1F (stereo partly drawn) [F33, 2-chloro-5-((R,3R)-2,2-dichloro-3-(4-fluoro-3-(trifluoromethyl)phenyl)cyclopropane-1-carboxamido)-N-(2,4-difluoro-3-(2-((trifluoromethyl)sulfinyl)acetamido)phenyl)benzamide] | 50 to 100 | 50 to 100 |
| CC(C(=O)Nc1c(F)ccc(NC(=O)c2cc(NC(=O)[C@H]3[C@H](c4cc(Cl)c(Cl)c(Cl)c4)C3(Cl)Cl)ccc2Cl)c1F)S(=O)(=O)C(F)(F)F (stereo partly drawn) [F35, 2-Chloro-5-((1R,3R)-2,2-dichloro-3-(3,4,5-trichlorophenyl)cyclopropane-1-carboxamido)-N-(2,4-difluoro-3-(2-((trifluoromethyl)sulfonyl)propanamido)phenyl)benzamide] | 50 to 100 | 50 to 100 |
| O=C(CS(=O)(=O)C(F)(F)F)Nc1c(F)ccc(NC(=O)c2cc(NC(=O)[C@H]3[C@H](c4cc(Cl)c(Cl)c(Cl)c4)C3(Cl)Cl)ccc2Cl)c1F [F36, 2-Chloro-5-((1R,3R)-2,2-dichloro-3-(3,4,5-trichlorophenyl)cyclopropane-1-carboxamido)-N-(2,4-difluoro-3-(2-((trifluoromethyl)sulfonyl)acetamido)phenyl)benzamide] | 50 to 100 | 50 to 100 |
| CC(C(=O)Nc1c(F)ccc(NC(=O)c2cc(NC(=O)[C@H]3[C@H](c4ccc(Cl)c(Cl)c4)C3(Cl)Cl)ccc2Cl)c1F)S(=O)(=O)C(F)(F)F (stereo partly drawn) [F37, 2-Chloro-5-((1R,3R)-2,2-dichloro-3-(3,4-dichlorophenyl)cyclopropane-1-carboxamido)-N-(2,4-difluoro-3-(2-((trifluoromethyl)sulfonyl)propanamido)phenyl)benzamide] | 50 to 100 | 50 to 100 |
| O=C(CS(=O)(=O)C(F)(F)F)Nc1c(F)ccc(NC(=O)c2cc(NC(=O)[C@H]3[C@H](c4ccc(Cl)c(Cl)c4)C3(Cl)Cl)ccc2Cl)c1F [F38, 2-Chloro-5-((1R,3R)-2,2-dichloro-3-(3,4-dichlorophenyl)cyclopropane-1-carboxamido)-N-(2,4-difluoro-3-(2-((trifluoromethyl)sulfonyl)acetamido)phenyl)benzamide] | 50 to 100 | 50 to 100 |
| CC(C(=O)Nc1c(F)ccc(NC(=O)c2cc(NC(=O)[C@H]3[C@H](c4ccc(F)c(Cl)c4)C3(Cl)Cl)ccc2Cl)c1F)S(=O)(=O)C(F)(F)F (stereo partly drawn) [F39, 2-Chloro-5-((1R,3R)-2,2-dichloro-3-(3-chloro-4-fluorophenyl)cyclopropane-1-carboxamido)-N-(2,4-difluoro-3-(2-((trif1uoromethyl)sulfonyl)propanamido)phenyl)benzamide] | 50 to 100 | 50 to 100 |
| O=C(CS(=O)(=O)C(F)(F)F)Nc1c(F)ccc(NC(=O)c2cc(NC(=O)[C@H]3[C@H](c4ccc(F)c(Cl)c4)C3(Cl)Cl)ccc2Cl)c1F [F40] | 50 to 100 | 50 to 100 |
| O=C(CS(=O)(=O)CC(F)(F)F)Nc1c(F)ccc(NC(=O)c2cc(NC(=O)[C@H]3[C@H](c4cc(Cl)c(Cl)c(Cl)c4)C3(Cl)Cl)ccc2Cl)c1F [F41, 2-Chloro-5-((1R,3R)-2,2-dichloro-3-(3,4,5-trichlorophenyl)cyclopropane-1-carboxamido)-N-(2,4-difluoro-3-(2-((2,2,2-trifluoroethyl)sulfonyl)acetamido)phenyl)benzamide] | 50 to 100 | 50 to 100 |
| O=C(CS(=O)(=O)CC(F)(F)F)Nc1c(F)ccc(NC(=O)c2cc(NC(=O)[C@H]3[C@H](c4ccc(Cl)c(Cl)c4)C3(Cl)Cl)ccc2Cl)c1F [F42, 2-chloro-5-((1R,3R)-2,2-dichloro-3-(3,4-dichlorophenyl)cyclopropane-1-carboxamido)-N-(2,4-difluoro-3-(2-((2,2,2-trifluoroethyl)sulfonyl)acetamido)phenyl)benzamide] | 50 to 100 | 50 to 100 |
| O=C(CS(=O)(=O)CC(F)(F)F)Nc1c(F)ccc(NC(=O)c2cc(NC(=O)[C@H]3[C@H](c4ccc(F)c(Cl)c4)C3(Cl)Cl)ccc2Cl)c1F [F43, 2-Chloro-5-((1R,3R)-2,2-dichloro-3-(3-chloro-4-fluorophenyl)cyclopropane-1-carboxamido)-N-(2,4-difluoro-3-(2-((2,2,2-trifluoroethyl)sulfonyl)acetamido)phenyl)benzamide] | 50 to 100 | 50 to 100 |
| O=C(CS(=O)(=O)CC(F)(F)F)Nc1c(F)ccc(NC(=O)c2cc(NC(=O)[C@H]3[C@H](c4ccc(F)c(C(F)(F)F)c4)C3(Cl)Cl)ccc2Cl)c1F [F44, 2-Chloro-5-((1R,3R)-2,2-dichloro-3-(4-fluoro-3-(trifluoromethyl)phenyl)cyclopropane-1-carboxamido)-N-(2,4-difluoro-3-(2-((2,22-trifluoroethyl)sulfonyl)acetamido)phenyl)benzamide] | 50 to 100 | 50 to 100 |
| CCS(=O)(=O)C(C)C(=O)Nc1c(F)ccc(NC(=O)c2cc(NC(=O)[C@H]3[C@H](c4ccc(F)c(C(F)(F)F)c4)C3(Cl)Cl)ccc2Cl)c1F (stereo partly drawn) [F45, 2-chloro-5-((R,3R)-2,2-dichloro-3-(4-fluoro-3-(trifluoromethyl)phenyl)cyclopropane-1-carboxamido)-N-(3-(2-(ethylsulfonyl)propanamido)-2,4-difluorophenyl)benzamide] | 50 to 100 | 50 to 100 |
